In patent US11760751B2, “Benzo 2-azaspiro[4.4]nonane compound and use thereof” (HELIOEAST PHARMACEUTICAL CO., LTD., priority 2020, dated 2023):

How the values were obtained:
S1PR1 = target: T1, S1PR1 (Homo sapiens, UniProt P21453); test: In vitro S1PR1 agonistic activity, U2OS-EDG1 cells, LiveBLAzer-FRET B/G (CCF4-AM); format: cell-based
T1 construct: expressed in transfected cells
Description: Test Embodiment 2: In Vitro Evaluation of the Agonistic Activity of the Compounds of the Present Disclosure on S1PR1
Experimental objective: to detect the agonistic activity of compounds on S1PR1
I. Cell Treatment • 1. The cells U2OS-EDG1 (batch number: Invitrogen-K1520) were taken out from a liquid nitrogen tank and quickly thawed in a 37° C. water bath; • 2. the cell suspension was aspirated into a 15 mL centrifuge tube, resuspended in 5 mL of pre-warmed culture medium, and centrifuged at 1000 rpm for 5 min; • 3. the supernatant was discarded, 10 mL of culture medium was resuspended, transferred to a T75 culture flask, and cultured in a 37° C., 5% CO2 incubator.
II. Agonist Assay • 1. Compounds were diluted to working concentrations, and the compounds were 3-fold diluted by Echo 555 (manufacturer: Labcyte) to 10 concentrations, and then 200 nL of each concentration were transferred to cell plates, and centrifuged at 1000 rpm for 15 seconds; • 2. the culture medium in the culture flask was aspirated, and 4 mL of Dulbecco's Phosphate Buffered Saline (DPBS, supplier: Coring, catalog number: 21-031-CVR, batch number: 03318006) was added thereto to wash off the residual serum, and 2 mL of trypsin was added thereto, and incubated in a 37° C. incubator for 2 minutes to digest the cells, and then 10 mL of seed plate culture medium was added to resuspend the cells, and 0.6 mL of the cell suspension was taken out for counting; • 3. the cell density was adjusted with the seed plate culture medium to 1.88E+05 cells/mL, 40 μL was seeded per well (7500\well), and 40 μL of FreeStyle™ Expression culture medium was added around the cell plate, left to stand for 15 minutes at room temperature, and incubated at 37° C. with 5% CO2 for 20 hours.
III. Signal Detection • 1. LiveBLAzer™-FRET B/G Substrate (CCF4-AM) detection reagent was configured according to the instructions; • 2. 8 μL of 6×Substrate Mixture was added to each well of the cell plate, centrifuged at 1000 rpm for 15 seconds, attached with a membrane, incubated at 23° C. for 2 hours, and detected by Envision […].
IV. Data Analysis • 1. The original data was converted into % Effect by using the equation, and the value of EC50 could be obtained by curve fitting with four parameters [obtained in the “log(agonist) vs. response—Variable slope” mode in GraphPad Prism]; • 2. calculation formula: Ratio=(460 nm−blank)/(535 nm−blank) % Effect=(SampleRatio−Ave LCRatio)/(Ave HCRatio−Ave LCRatio)*100%

[1] = Pharmacokinetic evaluation in SD rats at different oral doses; format: in vivo, Sprague Dawley rats; conditions: SD rat, single oral administration 5 mg/kg, 5 mg/kg
Description: Test Embodiment 5: Pharmacokinetic Evaluation of Compounds in Rats at Different Doses
Experimental objective: to test the pharmacokinetics of the compounds in SD rats at different doses
Sprague Dawley rats (male, 200-300 g, 7-9 weeks old, Shanghai SLAC)
A standard protocol was used to test the pharmacokinetic characteristics of the compounds in SD rats after oral administration. In the experiment, the candidate compound was prepared into a clear solution, and administrated to rats by single oral administration. The vehicle for compound 1 was DMSO: 10% hydroxypropyl β-cyclodextrin aqueous solution=5:95. The vehicle for compounds 1A and 1B was 0.5% carboxymethyl cellulose +0.2% Tween 80. Whole blood samples of compounds 1, 1A and 1B within 48 hours were collected, centrifuged at 3000 g for 15 minutes, and the supernatant was separated to obtain plasma samples. 4-fold volume of acetonitrile solution containing internal standard was added thereto to precipitate protein. The mixture was centrifuged, and the supernatant was taken, and an equal volume of water was added thereto. Then the mixture was centrifuged and the supernatant was taken for injection. The blood drug concentration was quantitatively analyzed by LC-MS/MS analysis method, and pharmacokinetic parameters, such as peak concentration, peak time, half-life, area under the drug-time curve, were calculated.

T1 sequence (P21453 whole entry): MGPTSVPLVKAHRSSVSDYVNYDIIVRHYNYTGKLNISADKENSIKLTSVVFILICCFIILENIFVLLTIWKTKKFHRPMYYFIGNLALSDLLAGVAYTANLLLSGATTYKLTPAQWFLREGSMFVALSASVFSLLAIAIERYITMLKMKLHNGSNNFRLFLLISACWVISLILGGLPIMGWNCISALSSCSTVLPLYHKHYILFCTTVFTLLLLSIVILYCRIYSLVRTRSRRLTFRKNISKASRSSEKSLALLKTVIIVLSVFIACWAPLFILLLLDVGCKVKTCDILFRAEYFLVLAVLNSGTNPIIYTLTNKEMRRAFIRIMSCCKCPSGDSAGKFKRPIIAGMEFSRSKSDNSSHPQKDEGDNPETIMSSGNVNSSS

In the case of `CC(C)Oc1ccc(-c2nc(-c3cccc4c3CCC43CCN(CC4(C(=O)O)CC4)C3)no2)cc1C#N` (single isomer, unassigned) [Compound 22A], the EC50 (S1PR1; 20 hours incubation) is reported as 0.15 nM, the Emax (S1PR1; % Effect, read-out: Emax) is reported as 84.2% and the “Area under the drug-time curve AUC0-last PO” value [1] is reported as 26.434 µM·h. The “Half-life T1/2 (PO)” value [1] was 5.69 h, the “Peak time Tmax” value [1] was 2 h and the Cmax ([1]; read-out: Peak concentration Cmax) was 2500 nM.
